Consider two compounds from ChEMBL document CHEMBL1255186, “A novel 18F-labeled pyridyl benzofuran derivative for imaging of β-amyloid plaques in Alzheimer's brains” (Bioorg Med Chem Lett, 2010).

In data set [1] the test system is Bone. In words: Biodistribution in mouse bone at 444 kBq/50 uL after 60 mins. Format: ADME, organism-based, Bone element. The note with it: in vivo, 1 h.
The subject of data set [2] is Brain. In words: Biodistribution in mouse brain at 444 kBq/50 uL after 30 mins. Format: ADME, organism-based. The note with it: in vivo, 0.5 h.
For data set [3], the system named is Brain. Nature of the data set: Biodistribution in mouse brain at 444 kBq/50 uL after 2 mins. In kind it is ADME, organism-based. The note with it: in vivo.
In data set [4] the test system is Bone. Nature of the data set: Biodistribution in mouse bone at 444 kBq/50 uL after 30 mins. Format: ADME, organism-based, Bone element. The note with it: in vivo, 0.5 h.
For data set [5], the system named is Brain. Nature of the data set: Biodistribution in mouse brain at 444 kBq/50 uL after 10 mins. In kind it is ADME, organism-based. The note with it: in vivo.
Data set [6] deals with Blood. Nature of the data set: Biodistribution in mouse blood at 444 kBq/50 uL after 10 mins. Format: ADME, organism-based. Conditions: in vivo.
Data set [7] deals with Bone. Nature of the data set: Biodistribution in mouse bone at 444 kBq/50 uL after 2 mins. Format: ADME, organism-based, Bone element. The note with it: in vivo.
The test system of data set [8] is Brain. Nature of the data set: Biodistribution in mouse brain at 444 kBq/50 uL after 60 mins. The note with it: in vivo, 1 h. Format: ADME, organism-based.
Data set [9] deals with Blood. Nature of the data set: Biodistribution in mouse blood at 444 kBq/50 uL after 2 mins. Format: ADME, organism-based. Conditions: in vivo.
The subject of data set [10] is Blood. In words: Biodistribution in mouse blood at 444 kBq/50 uL after 60 mins. Format: ADME, organism-based. Conditions: in vivo, 1 h.
Data set [11] can be described thus: Displacement of [125I]IMPY from amyloid beta 1-42.
The test system of data set [12] is Bone. Nature of the data set: Biodistribution in mouse bone at 444 kBq/50 uL after 10 mins. In kind it is ADME, organism-based, Bone element. The note with it: in vivo.
Data set [13] relates to Blood. In words: Biodistribution in mouse blood at 444 kBq/50 uL after 30 mins. Format: ADME, organism-based. Conditions: in vivo, 0.5 h.
Data set [14] is filed under the species Mus musculus. Nature of the data set: Reduction of amyloid beta40 level in Tg2576 mouse dentate gyrus at 11.1 MBq. In kind it is functional, tissue-based. Conditions: 11.1 M, tested as the 18F-labelled form.
The subject of another data set is Cortex. In words: Reduction of amyloid beta40 level in Tg2576 mouse cortex at 11.1 MBq. Format: functional, tissue-based. Conditions: 11.1 M, tested as the 18F-labelled form.
Data set [15] is filed under the species Mus musculus. In words: Reduction of amyloid beta40 level in Tg2576 mouse entorhinal cortex at 11.1 MBq. The note with it: 11.1 M, tested as the 18F-labelled form. In kind it is functional, tissue-based.
In a further data set the test system is Hippocampus. In words: Reduction of amyloid beta40 level in Tg2576 mouse hippocampus at 11.1 MBq. In kind it is functional, tissue-based. The note with it: 11.1 M, tested as the 18F-labelled form.

pKi: −log10 of the molar value. Active and inactive are the calls of the source. The calls are words filed in the database; no cut-off is given here.

In the case of `CN(C)c1ccc(-c2cc3cc(OCCOCCOCC[18F])ccc3o2)cn1`, the Drug uptake in the data set with Bone [1] came out at 1.42 % ID/g; in the data set with Brain [2] it was 2.78 % ID/g; in the data set with Brain [3], 5.16 % ID/g; with Bone [4] it was 1.11 % ID/g; in the data set with Brain [5], 3.75 % ID/g; in the data set with Blood [6], 2.13 % ID/g. Besides, the Drug uptake is 1.61 % ID/g in the data set with Bone [7]; 2.44 % ID/g in the data set with Brain [8]; 2.83 % ID/g in the data set on Blood [9]; 1.98 % ID/g in the data set on Blood [10]; 1.33 % ID/g in the data set with Bone [12]; 1.76 % ID/g with Blood [13]. In addition, in data set [11], the pKi – broadly, −log10 of the Ki, conventionally taken in molar units – is 9.05.

On to `CN(C)c1ccc(-c2cc3cc(OCCOCCOCCF)ccc3o2)cn1`, for which the outcome in the data set filed under Mus musculus [14], with Cortex, in the data set listed under Mus musculus [15] and in the data set on Hippocampus was Active.
